Where two headings read alike, the source gives them in different places.
Tests used:
anaesthetized dog = assay: Antiangorous activity on anaesthetized dog: consumption of oxygen in the left ventricule and cardiac effort (KATZ's index); format: in vivo; conditions: for inhibition in vivo at 0.625 mg/kg / inhibition in vivo at 2.5 mg/kg / inhibition in vivo at 2.3 mg/kg / inhibition in vivo at 4.5 mg/kg / inhibition in vivo at 0.14 mg/kg / inhibition in vivo at 1.25 mg/kg / inhibition in vivo at 1.02 mg/kg / inhibition in vivo at […]: Canis lupus familiaris, iv; for inhibition in vivo at […]: 0.15 mg/kg i.v. slow perfusion
How it was run: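 Katz index taken as mean arterial pressure multiplied by ECG (D2) heart rate, and myocardial O2 use as coronary sinus flow via modified Morawitz cannula times coronary arteriovenous O2 difference. Animals: pentobarbital-anaesthetized dogs (30 mg/kg i.v.), test compounds infused slowly intravenously.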

in vivo = conditions: for mortality: read-out: Toxicity (Mortality); for LD50: read-out: Toxicity: LD50
Source text: *LD50 or percentage of mortality which is given between brackets

[1] = 0.625 mg/kg i.v. slow perfusion
[2] = 0.625 mg/kg i.v. slow perfusion, read-out: Diminution in consumption of O2
[3] = 0.625 mg/kg i.v. slow perfusion, read-out: Diminution in the cardiac effort (IK)
[4] = 2.5 mg/kg i.v. slow perfusion, read-out: Diminution in consumption of O2
[5] = 2.5 mg/kg i.v. slow perfusion, read-out: Diminution in the cardiac effort (IK)
[6] = read-out: Diminution in consumption of O2
[7] = read-out: Diminution in the cardiac effort (IK)

Row | Structure (SMILES) | Diminution in consumption of O2: in time (anaesthetized dog; 2.5 mg/kg i.v. slow perfusion) [min] | Diminution in the cardiac effort (IK): in time (anaesthetized dog; 2.5 mg/kg i.v. slow perfusion) [min] | inhibition in vivo at 2.5 mg/kg (anaesthetized dog; [4]) [%] | inhibition in vivo at 2.5 mg/kg (anaesthetized dog; [5]) [%] | LD50 (in vivo; iv) [mg/kg] | other results
1 | COc1cc(/C=C/C(=O)N2CCN(CC(O)COc3ccc(NC(=O)C(C)C)c4c3OCCO4)CC2)cc(OC)c1OC (stereo not drawn) [770 692] | – | – | – | – | – | Diminution in consumption of O2: in time (anaesthetized dog; [1]): 15 min; Diminution in the cardiac effort (IK): in time (anaesthetized dog; [1]): 30 min; inhibition in vivo at 0.625 mg/kg (anaesthetized dog; [2]): 60%; inhibition in vivo at 0.625 mg/kg (anaesthetized dog; [3]): 45%; mortality (in vivo; iv, 200 mg/kg i.v.): 60%
2 | CNC(=O)Nc1ccc(OCC(O)CN2CCN(C(=O)/C=C/c3cc(OC)c(OC)c(OC)c3)CC2)c2c1OCO2 (stereo not drawn) [780 409] | 90 | 90 | 54 | 43 | – | mortality (in vivo; iv, 400 mg/kg i.v.): 20%
3 | COc1cc(/C=C/C(=O)N2CCN(CC(O)COc3cc(C(C)=O)cc4c3OCCO4)CC2)cc(OC)c1OC (stereo not drawn) [770 590] | 45 | 45 | 60 | 33 | 290 | –
4 | CCC(=O)c1ccc(OCC(O)CN2CCN(C(=O)/C=C/c3cc(OC)c(OC)c(OC)c3)CC2)cc1 (stereo not drawn) [770 854] | 40 | 40 | 41 | 18 | – | mortality (in vivo; iv, 300 mg/kg i.v.): 20%
5 | CNC(=O)Cc1ccc(OCC(O)CN2CCN(C(=O)/C=C/c3cc(OC)c(OC)c(OC)c3)CC2)c2c1OCCO2 (stereo not drawn) [770 382] | – | – | – | – | – | Diminution in consumption of O2: in time (anaesthetized dog; [1]): 15 min; Diminution in the cardiac effort (IK): in time (anaesthetized dog; [1]): 15 min; inhibition in vivo at 0.625 mg/kg (anaesthetized dog; [2]): 36%; inhibition in vivo at 0.625 mg/kg (anaesthetized dog; [3]): 16%; mortality (in vivo; iv, 400 mg/kg i.v.): 30%
6 | CNC(=O)Nc1ccc(OCCCN2CCN(C(=O)/C=C/c3cc(OC)c(OC)c(OC)c3)CC2)c2c1OCCO2 [780 040] | 15 | – | 59 | 9 | – | mortality (in vivo; iv, 400 mg/kg i.v.): 30%
7 | COc1cc(/C=C/C(=O)N2CCN(CC(O)COc3ccc(NC(C)=O)cc3)CC2)cc(OC)c1OC (stereo not drawn) [760 542] | 45 | 50 | 64 | 32 | – | mortality (in vivo; iv, 400 mg/kg i.v.): 0%
8 | COc1cc(/C=C/C(=O)N2CCN(CC(O)COc3ccc(NC(=O)C4CCCCC4)c4c3OCCO4)CC2)cc(OC)c1OC (stereo not drawn) [770 533] | – | – | – | – | – | Diminution in consumption of O2: in time (anaesthetized dog; [1]): 25 min; Diminution in the cardiac effort (IK): in time (anaesthetized dog; [1]): 25 min; inhibition in vivo at 0.625 mg/kg (anaesthetized dog; [2]): 30%; inhibition in vivo at 0.625 mg/kg (anaesthetized dog; [3]): 28%; mortality (in vivo; po, p.o.: 2000 mg/kg): 10%
9 | CCOC(=O)Nc1ccc(OCC(O)CN2CCN(C(=O)/C=C/c3cc(OC)c(OC)c(OC)c3)CC2)c2c1OCCO2 (stereo not drawn) [770 525] | – | – | – | – | 325 | Diminution in consumption of O2: in time (anaesthetized dog; [1]): 60 min; Diminution in the cardiac effort (IK): in time (anaesthetized dog; [1]): 60 min; inhibition in vivo at 0.625 mg/kg (anaesthetized dog; [2]): 66%; inhibition in vivo at 0.625 mg/kg (anaesthetized dog; [3]): 43%
10 | COc1cc(/C=C/C(=O)N2CCN(CC(O)COc3ccc4c(c3)OCO4)CC2)cc(OC)c1OC (stereo not drawn) [760 529] | – | – | – | – | 115 | Diminution in consumption of O2: in time (anaesthetized dog; 2.3 mg/kg i.v. slow perfusion): 30 min; Diminution in the cardiac effort (IK): in time (anaesthetized dog; 2.3 mg/kg i.v. slow perfusion): 15 min; inhibition in vivo at 2.3 mg/kg (anaesthetized dog; 2.3 mg/kg i.v. slow perfusion, read-out: Diminution in consumption of O2): 53%; inhibition in vivo at 2.3 mg/kg (anaesthetized dog; 2.3 mg/kg i.v. slow perfusion, read-out: Diminution in the cardiac effort (IK)): 19%
11 | CCOC(=O)c1ccc(OCC(O)CN2CCN(C(=O)/C=C/c3cc(OC)c(OC)c(OC)c3)CC2)cc1 (stereo not drawn) [760 382] | 30 | 30 | 40 | 24 | 260 | –
12 | COc1cc(/C=C/C(=O)N2CCN(CC(O)COc3ccccc3C#N)CC2)cc(OC)c1OC (stereo not drawn) [760 389] | – | – | – | – | 245 | Diminution in consumption of O2: in time (anaesthetized dog; 4.5 mg/kg i.v. slow perfusion): 60 min; Diminution in the cardiac effort (IK): in time (anaesthetized dog; 4.5 mg/kg i.v. slow perfusion): 60 min; inhibition in vivo at 4.5 mg/kg (anaesthetized dog; 4.5 mg/kg i.v. slow perfusion, read-out: Diminution in consumption of O2): 70%; inhibition in vivo at 4.5 mg/kg (anaesthetized dog; 4.5 mg/kg i.v. slow perfusion, read-out: Diminution in the cardiac effort (IK)): 55%
13 | COc1cc(/C=C/C(=O)N2CCN(CC(O)COc3ccc(C)c4c3OCCO4)CC2)cc(OC)c1OC (stereo not drawn) [760 847] | 60 | – | 47 | 14 | – | mortality (in vivo; iv, 169 mg/kg i.v.): 20%
14 | COc1cc(/C=C/C(=O)N2CCN(CC(O)COc3ccc(CC#N)cc3)CC2)cc(OC)c1OC (stereo not drawn) [770 488] | 30 | 15 | 78 | 17 | 225 | –
15 | COc1cc(/C=C/C(=O)N2CCN(CC(O)COc3cccc4c3OCO4)CC2)cc(OC)c1OC (stereo not drawn) [780 138] | 45 | 30 | 46 | 19 | 150 | –
16 | COc1cc(/C=C/C(=O)N2CCN(CC(O)COc3cccc4c3OCCO4)CC2)cc(OC)c1OC (stereo not drawn) [760 519] | 15 | 15 | 51 | 11 | 218 | –
17 | COc1cc(/C=C/C(=O)N2CCN(CC(O)COc3ccc(NC(C)=O)c4c3CCCC4)CC2)cc(OC)c1OC (stereo not drawn) [780 044] | 30 | 15 | 49 | 36 | – | mortality (in vivo; iv, 400 mg/kg i.v.): 10%
18 | COc1cc(/C=C/C(=O)N2CCN(CC(O)COc3ccc(NC(=O)NC4CCCCC4)c4c3OCCO4)CC2)cc(OC)c1OC (stereo not drawn) [770 081] | – | – | – | – | 148 | Diminution in consumption of O2: in time (anaesthetized dog; 0.14 mg/kg i.v. slow perfusion): 53 min; Diminution in the cardiac effort (IK): in time (anaesthetized dog; 0.14 mg/kg i.v. slow perfusion): 15 min; inhibition in vivo at 0.14 mg/kg (anaesthetized dog; 0.14 mg/kg i.v. slow perfusion, read-out: Diminution in consumption of O2): 58%; inhibition in vivo at 0.14 mg/kg (anaesthetized dog; 0.14 mg/kg i.v. slow perfusion, read-out: Diminution in the cardiac effort (IK)): 20%
19 | COc1cc(/C=C/C(=O)N2CCN(CC(O)COc3ccc([N+](=O)[O-])cc3Cl)CC2)cc(OC)c1OC (stereo not drawn) [771 124] | 15 | 23 | 34 | 13 | 270 | –
20 | COc1cc(/C=C/C(=O)N2CCN(CC(O)COc3ccc(O)c4c3OCCO4)CC2)cc(OC)c1OC (stereo not drawn) [780 120, 1-[3-(4-hydroxy-2,3-ethylenedioxy)phenoxy-2-hydroxy]propyl-4-(3,4,5-trimethoxy-cinnamoyl)piperazine, hydrated chlorhydrate] | 30 | 15 | 65 | 29 | 340 | –
21 | CNC(=O)N(C)c1ccc(OCC(O)CN2CCN(C(=O)/C=C/c3cc(OC)c(OC)c(OC)c3)CC2)c2c1OCCO2 (stereo not drawn) [771 238] | – | – | – | – | – | Diminution in consumption of O2: in time (anaesthetized dog; 1.25 mg/kg i.v. slow perfusion): 30 min; Diminution in the cardiac effort (IK): in time (anaesthetized dog; 1.25 mg/kg i.v. slow perfusion): 30 min; inhibition in vivo at 1.25 mg/kg (anaesthetized dog; 1.25 mg/kg i.v. slow perfusion, read-out: Diminution in consumption of O2): 40%; inhibition in vivo at 1.25 mg/kg (anaesthetized dog; 1.25 mg/kg i.v. slow perfusion, read-out: Diminution in the cardiac effort (IK)): 38%; mortality (in vivo; iv, 400 mg/kg i.v.): 0%
22 | COc1cc(/C=C/C(=O)N2CCN(CC(O)COc3cccc(NC(C)=O)c3)CC2)cc(OC)c1OC (stereo not drawn) [770 844] | 23 | 30 | 58 | 35 | – | mortality (in vivo; iv, 400 mg/kg i.v.): 0%
23 | CNC(=O)c1ccc(OCC(O)CN2CCN(C(=O)/C=C/c3cc(OC)c(OC)c(OC)c3)CC2)c(OC)c1 (stereo not drawn) [770 855] | 60 | 60 | 60 | 45 | 260 | –
24 | COc1cc(/C=C/C(=O)N2CCN(CC(O)COc3ccc(C(C)=O)c4c3OCCO4)CC2)cc(OC)c1OC(C)C (stereo not drawn) [770 727] | 15 | 30 | 57 | 27 | 130 | –
25 | CC(=O)c1ccc(OCC(O)CN2CCN(C(=O)/C=C/c3ccc(F)cc3)CC2)c2c1OCCO2 (stereo not drawn) [770 199] | – | – | – | – | 328 | Diminution in consumption of O2: in time (anaesthetized dog; 1.02 mg/kg i.v. slow perfusion): 15 min; Diminution in the cardiac effort (IK): in time (anaesthetized dog; 1.02 mg/kg i.v. slow perfusion): 15 min; inhibition in vivo at 1.02 mg/kg (anaesthetized dog; 1.02 mg/kg i.v. slow perfusion, read-out: Diminution in consumption of O2): 29%; inhibition in vivo at 1.02 mg/kg (anaesthetized dog; 1.02 mg/kg i.v. slow perfusion, read-out: Diminution in the cardiac effort (IK)): 5%
26 | COc1cc(/C=C/C(=O)N2CCN(CC(O)COc3ccc(C(C)C)cc3)CC2)cc(OC)c1OC (stereo not drawn) [770 858] | – | – | – | – | 260 | inhibition in vivo at […] (anaesthetized dog; [6]): 16%; inhibition in vivo at […] (anaesthetized dog; [7]): 15%
27 | COc1cc(/C=C/C(=O)N2CCN(CC(O)COc3ccc(NC(=O)NC(C)C)c4c3OCCO4)CC2)cc(OC)c1OC (stereo not drawn) [770 630] | – | – | – | – | – | inhibition in vivo at […] (anaesthetized dog; [6]): 58%; inhibition in vivo at […] (anaesthetized dog; [7]): 32%; mortality (in vivo; iv, 400 mg/kg i.v.): 40%

— patent US4178442A, “Novel cinnamoyles piperazines and homopiperazines, the method of preparing them and their application in therapeutics” (Delalande S. A., priority 1977, dated 1979)
